Reference: ChEMBL document CHEMBL5032522, “N-2-(phenylamino) benzamide derivatives as novel anti-glioblastoma agents: Synthesis and biological evaluation” (Eur J Med Chem, 2021)
Calls of active or inactive are those of the source. No cut-off for these calls is given here.

Columns and labels:
[1] = tested on: U-87 MG; assay: Antiproliferative activity against human U-87 MG cells assessed as inhibition of cell growth measured after 72 hrs by CCK-8 assay; format: functional, cell-based, U-87MG ATCC
[2] = tested on: U-251; assay: Antiproliferative activity against human U-251 cells assessed as inhibition of cell growth measured after 72 hrs by CCK-8 assay; format: functional, cell-based; conditions: U-251, 72 h
[3] = tested on: C6; assay: Antiproliferative activity against rat C6 cells assessed as inhibition of cell growth measured after 72 hrs by CCK-8 assay; format: functional, cell-based; conditions: C6, 72 h
[4] = biological target: DNA topoisomerase 2-alpha (Homo sapiens) (UniProt P11388); assay: Inhibition of human topoisomerase 2 alpha using supercoiled DNA pBR322 as substrate assessed as DNA relaxation at 100 uM incubated for 30 mins by ethidium bromide staining based agarose gel electrophoresis
DNA topoisomerase 2-alpha (Homo sapiens), sequence (P11388 whole entry): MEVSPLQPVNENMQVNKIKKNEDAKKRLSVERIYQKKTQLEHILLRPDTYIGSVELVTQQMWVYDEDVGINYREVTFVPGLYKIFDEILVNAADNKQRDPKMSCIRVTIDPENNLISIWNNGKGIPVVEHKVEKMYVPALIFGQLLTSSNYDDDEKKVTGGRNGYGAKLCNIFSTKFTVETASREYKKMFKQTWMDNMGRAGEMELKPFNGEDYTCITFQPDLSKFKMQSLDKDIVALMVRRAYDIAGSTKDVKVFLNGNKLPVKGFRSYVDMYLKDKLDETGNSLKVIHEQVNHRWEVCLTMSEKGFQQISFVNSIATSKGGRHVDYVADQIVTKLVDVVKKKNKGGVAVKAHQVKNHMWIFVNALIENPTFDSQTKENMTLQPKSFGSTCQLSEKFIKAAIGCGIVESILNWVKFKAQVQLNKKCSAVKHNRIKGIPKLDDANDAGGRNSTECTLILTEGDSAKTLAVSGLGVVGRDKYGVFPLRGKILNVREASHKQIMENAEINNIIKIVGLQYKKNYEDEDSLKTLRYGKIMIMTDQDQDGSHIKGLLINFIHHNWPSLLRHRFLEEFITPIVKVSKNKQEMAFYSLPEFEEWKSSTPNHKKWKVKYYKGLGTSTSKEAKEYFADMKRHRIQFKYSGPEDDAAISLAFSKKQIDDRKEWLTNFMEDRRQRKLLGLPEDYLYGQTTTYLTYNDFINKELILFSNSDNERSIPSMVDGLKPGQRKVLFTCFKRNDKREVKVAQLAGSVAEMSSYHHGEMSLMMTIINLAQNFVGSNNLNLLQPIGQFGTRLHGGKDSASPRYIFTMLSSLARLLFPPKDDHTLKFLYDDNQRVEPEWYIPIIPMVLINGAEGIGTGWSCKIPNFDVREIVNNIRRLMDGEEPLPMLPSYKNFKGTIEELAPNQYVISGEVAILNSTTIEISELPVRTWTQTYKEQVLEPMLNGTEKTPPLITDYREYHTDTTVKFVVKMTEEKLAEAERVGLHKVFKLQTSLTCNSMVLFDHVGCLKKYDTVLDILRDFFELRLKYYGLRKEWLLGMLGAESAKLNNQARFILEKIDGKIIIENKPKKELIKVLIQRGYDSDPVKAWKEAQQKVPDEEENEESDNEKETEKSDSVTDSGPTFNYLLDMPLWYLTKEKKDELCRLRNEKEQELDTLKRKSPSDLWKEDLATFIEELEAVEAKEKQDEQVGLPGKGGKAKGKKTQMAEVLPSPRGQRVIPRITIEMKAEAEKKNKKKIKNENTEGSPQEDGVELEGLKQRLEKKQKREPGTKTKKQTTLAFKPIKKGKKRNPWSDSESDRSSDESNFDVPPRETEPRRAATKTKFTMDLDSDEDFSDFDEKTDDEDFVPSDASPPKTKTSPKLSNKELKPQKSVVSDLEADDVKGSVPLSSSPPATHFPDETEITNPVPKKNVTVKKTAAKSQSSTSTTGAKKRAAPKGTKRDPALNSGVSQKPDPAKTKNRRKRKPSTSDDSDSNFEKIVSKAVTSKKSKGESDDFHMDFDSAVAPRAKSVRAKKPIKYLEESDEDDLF

[5] = tested on: U-87 MG; assay: Induction of morphological changes in human U-87 MG cells assessed as appearance of rounded and shortened cells at 3.3 uM incubated for 72 hrs by Giemsa staining based light microscopic method; format: functional, cell-based; conditions: U-87MG ATCC
[6] = tested on: U-87 MG; assay: Induction of morphological changes in human U-87 MG cells assessed as appearance of spindle cell shape at 3.3 uM incubated for 72 hrs by Giemsa staining based light microscopic method; format: functional; conditions: U-87MG ATCC
[7] = tested on: U-251; assay: Inhibition of colony formation in human U-251 cells measured after 8 days by crystal violet staining based assay; format: functional, cell-based; conditions: time 8.0 day
[8] = tested on: U-87 MG; assay: Induction of cell cycle arrest in human U-87 MG cells assessed as accumulation of cells at G2/M phase incubated for 72 hrs by propidium iodide/RNase A staining based flow cytometry analysis; format: functional; conditions: U-87MG ATCC
[9] = tested on: U-251; assay: Induction of cell cycle arrest in human U-251 cells assessed as increase in G2 phase accumulation at 10 uM incubated for 72 hrs by propidium iodide/RNase A staining based flow cytometry (reference value: 20.88%); format: functional
[10] = tested on: U-87 MG; assay: Induction of cell cycle arrest in human U-87 MG assessed as decrease in G0/G1 phase accumulation at 10 uM incubated for 72 hrs by propidium iodide/RNase A staining based flow cytometry; format: functional; conditions: U-87MG ATCC
[11] = tested on: U-251; assay: Inhibition of cell invasion in human U-251 cells incubated for 24 hrs by crystal violet staining based light microscopic analysis; format: functional
[12] = tested on: U-87 MG; assay: Inhibition of cell invasion in human U-87 MG cells incubated for 24 hrs by crystal violet staining based light microscopic analysis; format: functional; conditions: U-87MG ATCC
[13] = tested on: U-87 MG; assay: Inhibition of cell migration in human U-87 MG cells incubated for 24 hrs by crystal violet staining based light microscopic analysis; format: functional; conditions: U-87MG ATCC
[14] = tested on: U-251; assay: Inhibition of cell migration in human U-251 cells incubated for 24 hrs by crystal violet staining based light microscopic analysis; format: functional
[15] = Acute toxicity in Kunming mouse assessed as death at 500 mg/kg, ip administered as single dose observed every day for 14 days; format: organism-based; conditions: in vivo, 336 h, time 14 day
[16] = Acute toxicity in Kunming mouse assessed as death at 750 mg/kg, ip administered as single dose observed every day for 14 days; format: organism-based; conditions: in vivo, 336 h, time 14 day
[17] = tested on: C6; assay: Antitumor activity against rat C6 cells inoculated orthotopic Sprague-Dawley rat model assessed as reduction in tumor volume at 100 mg/kg, ip bid administered for 14 days; format: functional, organism-based; conditions: time 14.0 day
[18] = Toxicity in Sprague-Dawley rat inoculated with C6 cells assessed as reduction in body weight at 100 mg/kg, ip bid administered for 14 days; format: organism-based; conditions: in vivo, 336 h, time 14 day
[19] = tested on: C6; assay: Antitumor activity against rat C6 cells inoculated orthotopic Sprague-Dawley rat model assessed as tumor growth inhibition at 100 mg/kg, ip bid administered for 14 days by MRI scanner relative to control; format: functional; conditions: 336 h, time 14 day, read-out: TGI
[20] = tested on: U-87 MG; assay: Antiproliferative activity against human U-87 MG cells assessed as cell survival at <= 1.1 uM measured after 24 hrs by CCK-8 assay; format: functional, U-87MG ATCC; conditions: dose microM <=1.1
[21] = tested on: U-251; assay: Antiproliferative activity against human U-251 cells assessed as cell survival at <= 1.1 uM measured after 24 hrs by CCK-8 assay; format: functional; conditions: dose microM <=1.1
[22] = tested on: U-87 MG; assay: Induction of morphological changes in human U-87 MG cells assessed as appearance of shrunken cell bodies at 3.3 uM incubated for 72 hrs by Giemsa staining based light microscopic method; format: functional; conditions: U-87MG ATCC
[23] = tested on: U-251; assay: Induction of morphological changes in human U-251 cells assessed as appearance of rounded and shortened cells at 3.3 uM incubated for 72 hrs by Giemsa staining based light microscopic method; format: functional, cell-based
[24] = tested on: U-251; assay: Induction of morphological changes in human U-251 cells assessed as membrane blebbing at 3.3 uM incubated for 72 hrs by Giemsa staining based light microscopic method; format: functional, cell-based
[25] = biological target: T1, Prostaglandin G/H synthase 2 (Homo sapiens) (UniProt P35354); assay: Inhibition of COX-2 in human U-87 MG cells assessed as inhibition of PGE2 production measured after 72 hrs; format: cell-based
T1 sequence (whole entry): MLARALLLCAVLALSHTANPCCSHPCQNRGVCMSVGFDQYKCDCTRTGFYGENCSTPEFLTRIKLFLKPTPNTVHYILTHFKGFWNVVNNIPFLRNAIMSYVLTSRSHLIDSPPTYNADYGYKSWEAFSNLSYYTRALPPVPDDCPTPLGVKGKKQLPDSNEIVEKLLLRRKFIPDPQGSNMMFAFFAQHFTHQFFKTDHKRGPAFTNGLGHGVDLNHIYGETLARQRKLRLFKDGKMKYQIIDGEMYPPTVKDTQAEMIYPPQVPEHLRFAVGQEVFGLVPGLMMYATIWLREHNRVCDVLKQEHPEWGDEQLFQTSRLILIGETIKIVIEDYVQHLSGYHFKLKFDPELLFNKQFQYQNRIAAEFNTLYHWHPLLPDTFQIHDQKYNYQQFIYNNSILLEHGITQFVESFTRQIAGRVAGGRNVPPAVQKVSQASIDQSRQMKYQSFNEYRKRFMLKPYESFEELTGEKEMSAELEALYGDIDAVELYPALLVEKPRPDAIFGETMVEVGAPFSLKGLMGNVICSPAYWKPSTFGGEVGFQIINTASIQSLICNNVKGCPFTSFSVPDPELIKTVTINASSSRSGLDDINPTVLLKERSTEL

[26] = tested on: U-87 MG; assay: Induction of cell cycle arrest in human U-87 MG cells assessed as increase in G2 phase accumulation at 10 uM incubated for 72 hrs by propidium iodide/RNase A staining based flow cytometry; format: functional; conditions: U-87MG ATCC
[27] = Acute toxicity in ip dosed Kunming mouse assessed as lethal dose measured after 14 days; format: organism-based; conditions: in vivo, time 14 day

SMILES	IC50 [1]	IC50 [2]	IC50 [3]	inhibition [4]	Activity [5]	Activity [6]	inhibition [7]	Activity [8]	Activity [9]	Activity [10]	inhibition [11]	inhibition [12]	inhibition [13]	inhibition [14]	Activity [15]	Activity [16]	Activity [17]	Activity [18]	inhibition in vivo at 100 mg/kg [19]	Survival [20]	also measured
Cc1c(Cl)cccc1Nc1ccccc1C(=O)Nc1ccc2c(c1)OCO2	6.46 µM	9.91 µM	16.9 µM	inactive	Active	Active	Dose-Dependent Effect	Dose-Dependent Effect	74.64%	Active	Dose-Dependent Effect	Dose-Dependent Effect	Dose-Dependent Effect	Dose-Dependent Effect	Non-Toxic	Non-Toxic	Active	Non-Toxic	56.4%	>80%	Survival [21]: >80%; Activity [22]: Active; Activity [23]: Active; Activity [24]: Active; inhibition [25]: Active; Activity [26]: Active; LD50 at 336 h [27]: 750 mg/kg
COc1ccc(NC(=O)c2ccccc2Nc2cccc(Cl)c2C)cc1	4.77 µM	5.36 µM	10.1 µM	inactive	Active	Active	Dose-Dependent Effect	Dose-Dependent Effect	73.72%	Active	Dose-Dependent Effect	Dose-Dependent Effect	Dose-Dependent Effect	Dose-Dependent Effect	Toxic	Non-Toxic	Active	Non-Toxic	66.7%	>80%	Survival [21]: >80%; Activity [22]: Active; Activity [23]: Active; Activity [24]: Active; inhibition [25]: Active; Activity [26]: Active; LD50 at 336 h [27]: 300 mg/kg
